# Results: patent US12006330B2, “Substituted macrocyclic compounds and related methods of treatment” (Alkermes, Inc., priority 2020, dated 2024)
# Molecular target: T1, human orexin-2 receptor (OX2R) (Homo sapiens, UniProt O43614)
# T1 construct: expressed in transfected cells
# T1 sequence (O43614 1-444): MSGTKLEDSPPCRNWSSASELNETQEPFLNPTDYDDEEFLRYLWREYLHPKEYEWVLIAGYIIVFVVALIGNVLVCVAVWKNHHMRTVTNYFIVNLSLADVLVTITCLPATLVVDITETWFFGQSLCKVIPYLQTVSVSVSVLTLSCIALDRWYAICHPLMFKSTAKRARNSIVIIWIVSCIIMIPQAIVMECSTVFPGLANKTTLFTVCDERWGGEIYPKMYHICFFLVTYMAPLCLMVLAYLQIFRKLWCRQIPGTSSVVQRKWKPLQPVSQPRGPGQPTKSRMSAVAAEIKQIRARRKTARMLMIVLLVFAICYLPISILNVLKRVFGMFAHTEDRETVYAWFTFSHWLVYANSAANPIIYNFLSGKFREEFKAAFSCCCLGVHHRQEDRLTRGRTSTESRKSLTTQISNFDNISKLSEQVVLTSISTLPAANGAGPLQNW
# Assay: Human OX2R IP1 assay
# Format: cell-based
# Details: T-Rex CHO cells stably overexpressing human OX2R; IP1 accumulation; 1 hr at 37 degrees C; mean EC50
# Protocol: T-Rex CHO cells stably overexpressing the human orexin-2 receptor (OX2R) were induced overnight with 1 μg/mL of doxycycline in a T225 flask. 24 hours post induction, cells were lifted with accutase and plated into a 384-well proxy plate at 30,000 cells/well. Cells were then treated with different test compounds in 1× stimulation buffer containing 10 mM Hepes, 1 mM CaCl2), 0.5 mM MgCl2, 4.2 mM KCl, 146 mM NaCl, 5.5 mM glucose, and 50 mM LiCl, pH 7.4, for 1 hr at 37 degrees C. Following incubation, the reaction was terminated by the addition of detection mix, which is composed of IP1-d2 and anti-IP1-cryptate diluted in lysis buffer as well as 1× stimulation buffer. The plates were allowed to incubate for 1 hour at room temperature and were then read in the EnVision® multimode plate reader, measuring inositol phosphate levels.
# Cisbio IP1 is a cell-based functional assay quantifying the accumulation of inositol monophosphate (IP), a metabolite released as a result of orexin 2 receptor activation through the phospholipase C-Gq signaling pathway. This is a competitive immunoassay in which the IP1 produced by the cells upon receptor activation competes with the IP1 analog coupled to the d2 fluorophore (acceptor) for binding to an anti-IP1 monoclonal antibody labeled with Eu cryptate (donor). The measured HTRF-FRET based signal is inversely proportional to the IP1 concentration produced.
# The EC50 values reported in Table 2 were obtained according to the human OX2R IP1 assay described above. Data are the mean EC50 values S.E.M. Reference Compound A is methyl (2R,3S)-3-((methylsulfonyl)amino)-2-(((cis-4-phenylcyclohexyl)oxy)methyl)-piperidine-1-carboxylate (Example 5 of PCT publication No. WO2017/135306). Reference Compound B is N-((2S,3S)-1-(2-hydroxy-2-methylpropanoyl)-2-((2,3′,5′-trifluorobiphenyl-3-yl)methyl)pyrrolidin-3-yl)methanesulfonamide (Example 483 of PCT publication No. WO2019/027058).
row,SMILES,EC50
1,O=S(=O)(N[C@H]1CCCN2CCOc3ncccc3[C@H]3CC[C@H](CC3)OC[C@@H]12)C1CC1 (stereo in doubt) [Compound 63],> 1000 nM
2,CC(C)S(=O)(=O)N[C@H]1CCCN2CCOc3ncccc3[C@H]3CC[C@H](CC3)OC[C@@H]12 (stereo in doubt) [Compound 64],> 1000 nM
3,O=C1COc2nccnc2[C@H]2CC[C@H](CC2)OC[C@H]2[C@@H](NS(=O)(=O)C3CC3)CCCN12 (stereo in doubt) [Compound 65],< 10 nM
4,CC(C)S(=O)(=O)N[C@H]1CCCN2C(=O)COc3nccnc3[C@H]3CC[C@H](CC3)OC[C@@H]12 (stereo in doubt) [Compound 66],< 10 nM
5,O=C1COc2nnccc2[C@H]2CC[C@H](CC2)OC[C@H]2[C@@H](NS(=O)(=O)C3CC3)CCCN12 (stereo in doubt) [Compound 67],10 to 1000 nM
6,Cc1ncnc2c1[C@H]1CC[C@H](CC1)OC[C@H]1[C@@H](NS(=O)(=O)C3CC3)CCCN1C(=O)CO2 (stereo in doubt) [Compound 68],< 10 nM
7,Cc1ncnc2c1[C@H]1CC[C@H](CC1)OC[C@H]1[C@@H](NS(=O)(=O)C(C)C)CCCN1C(=O)CO2 (stereo in doubt) [Compound 69],< 10 nM
8,Cc1cccc2c1[C@H]1CC[C@H](CC1)OC[C@H]1[C@@H](NS(=O)(=O)C3CC3)CCN1C(=O)CO2 (stereo in doubt) [Compound 70],< 10 nM
9,O=C1COc2cccc(F)c2[C@H]2CC[C@H](CC2)OC[C@H]2[C@@H](NS(=O)(=O)C3CC3)CCCN12 (stereo in doubt) [Compound 74],< 10 nM
10,Cc1c(Cl)ccc2c1[C@H]1CC[C@H](CC1)OC[C@H]1[C@@H](NS(=O)(=O)C3CC3)CCCN1C(=O)CO2 (stereo in doubt) [Compound 75],< 10 nM
11,Cc1ccc2c(c1C)[C@H]1CC[C@H](CC1)OC[C@H]1[C@@H](NS(=O)(=O)C(C)C)CCCN1C(=O)CO2 (stereo in doubt) [Compound 76],< 10 nM
12,Cc1ccc2c(c1C)[C@H]1CC[C@H](CC1)OC[C@H]1[C@@H](NS(=O)(=O)C3CC3)CCCN1C(=O)CO2 (stereo in doubt) [Compound 77],< 10 nM
13,Cc1ccc2c(c1C)[C@H]1CC[C@H](CC1)OC[C@H]1[C@@H](NS(C)(=O)=O)CCCN1C(=O)CO2 (stereo in doubt) [Compound 78],< 10 nM
14,Cc1cccc2c1[C@H]1CC[C@H](CC1)OC[C@H]1[C@@H](NS(=O)(=O)C(C)C)CCN1C(=O)CO2 (stereo in doubt) [Compound 79],< 10 nM
15,O=C1COc2ccccc2[C@H]2CC[C@H](CC2)OC[C@H]2[C@@H](NS(=O)(=O)C3COC3)CCCN12 (stereo in doubt) [Compound 80],< 10 nM
16,Cc1ncnc2c1[C@H]1CC[C@H](CC1)OC[C@H]1[C@@H](NS(C)(=O)=O)CCN1C(=O)CO2 (stereo in doubt) [Compound 82],10 to 1000 nM

row,SMILES,EC50
1,Cc1ncnc2c1[C@H]1CC[C@H](CC1)OC[C@H]1[C@@H](NS(=O)(=O)C3CC3)CCN1C(=O)CO2 (stereo in doubt) [Compound 83],10 to 1000 nM
2,Cc1ncnc2c1[C@H]1CC[C@H](CC1)OC[C@H]1[C@@H](NS(=O)(=O)C(C)C)CCN1C(=O)CO2 (stereo in doubt) [Compound 86],10 to 1000 nM
3,Cc1ccnc2c1[C@H]1CC[C@H](CC1)OC[C@H]1[C@@H](NS(=O)(=O)C3COC3)CCCN1C(=O)CO2 (stereo in doubt) [Compound 88],< 10 nM
4,Cc1ccnc2c1[C@H]1CC[C@H](CC1)OC[C@H]1[C@@H](NS(=O)(=O)C3CC3)CCN1C(=O)CO2 (stereo in doubt) [Compound 92],< 10 nM
5,Cc1ccnc2c1[C@H]1CC[C@H](CC1)OC[C@H]1[C@@H](NS(=O)(=O)C(C)C)CCN1C(=O)CO2 (stereo in doubt) [Compound 93],< 10 nM
6,CS(=O)(=O)N[C@H]1CCCN2C(=O)COc3ccc(O)cc3[C@H]3CC[C@H](CC3)OC[C@@H]12 (stereo in doubt) [Compound 96],< 10 nM
7,O=C1COc2ncncc2[C@H]2CC[C@H](CC2)OC[C@H]2[C@@H](NS(=O)(=O)C3CC3)CCCN12 (stereo in doubt) [Compound 97],10 to 1000 nM
8,CC(C)S(=O)(=O)N[C@H]1CCN2C(=O)COc3ncccc3[C@H]3CC[C@H](CC3)OC[C@@H]12 (stereo in doubt) [Compound 101],< 10 nM
9,O=C1COc2ccccc2[C@H]2CC[C@H](CC2)OC[C@H]2[C@@H](NS(=O)(=O)C3CC3)CCN12 (stereo in doubt) [Compound 105],< 10 nM
10,CC(C)S(=O)(=O)N[C@H]1CCN2C(=O)COc3ccccc3[C@H]3CC[C@H](CC3)OC[C@@H]12 (stereo in doubt) [Compound 106],< 10 nM
11,O=C1COc2ncccc2[C@H]2CC[C@H](CC2)OC[C@H]2[C@@H](NS(=O)(=O)C3CC3)CCN12 (stereo in doubt) [Compound 107],< 10 nM
12,O=C1COc2ncccc2[C@H]2CC[C@H](CC2)OCC2[C@@H](NS(=O)(=O)C(F)(F)F)CCN12 (stereo in doubt) [Compound 108],< 10 nM
13,Cc1ccnc2c1[C@H]1CC[C@H](CC1)OC[C@H]1[C@@H](NS(=O)(=O)C3COC3)CCN1C(=O)CO2 (stereo in doubt) [Compound 109],< 10 nM
14,O=C1COc2ccccc2[C@H]2CC[C@H](CC2)OC[C@H]2[C@@H](NS(=O)(=O)C3COC3)CCN12 (stereo in doubt) [Compound 110],< 10 nM
15,C[C@H]1C[C@H](NS(C)(=O)=O)C2CO[C@H]3CC[C@H](CC3)c3ccccc3OCC(=O)N21 (stereo in doubt) [Compound 111],10 to 1000 nM
